Experimental data as given in patent US20240116892A1, “HETEROCYCLIC AMIDE AND UREA COMPOUNDS AS JAK2 INHIBITORS” (Ajax Therapeutics, Inc., priority 2022, published 2024).

molecular target: JAK2 (JH1 domain-catalytic, Y1007F, Y1008F) kinase (Homo sapiens (Human), UniProt O60674, Y1007F/Y1008F); test: JAK2 JH1 Domain Binding Assay; details: qPCR readout
Procedure: JAK2 (JH1 domain-catalytic, Y1007F, Y1008F) kinase was expressed as N-terminal fusion to the DNA binding domain of NFkB in transiently transfected HEK293 cells and subsequently tagged with DNA for qPCR detection. Streptavidin-coated magnetic beads were treated with biotinylated small molecule ligands for 30 minutes at room temperature to generate affinity resins for kinase assays. The liganded beads were blocked with excess biotin and washed with blocking buffer (SeaBlock (Pierce), 1% BSA, 0.05% Tween 20, 1 mmol/L DTT) to remove unbound ligand and to reduce nonspecific phage binding. Binding reactions were assembled by combining kinases, liganded affinity beads, and test compounds in 1× binding buffer (1× PBS, 0.05% Tween 20, 0.1% BSA, 1 mmol/L DTT). Test compound was prepared as 111× stocks in 100% DMSO and directly diluted into the assay wells. All reactions were performed in polypropylene 384-well plates in a final volume of 0.02 mL. The assay plates were incubated at room temperature with shaking for 1 hour and the affinity beads were washed with wash buffer (1× PBS, 0.05% Tween 20). The beads were then re-suspended in elution buffer (1× PBS, 0.05% Tween 20, 0.5 μmol/L non-biotinylated affinity ligand) and incubated at room temperature with shaking for 30 minutes. The kinase concentration in the eluate was measured by qPCR.

Sequence of JAK2 (JH1 domain-catalytic, Y1007F, Y1008F) kinase (O60674 849-1124 Y1007F/Y1008F): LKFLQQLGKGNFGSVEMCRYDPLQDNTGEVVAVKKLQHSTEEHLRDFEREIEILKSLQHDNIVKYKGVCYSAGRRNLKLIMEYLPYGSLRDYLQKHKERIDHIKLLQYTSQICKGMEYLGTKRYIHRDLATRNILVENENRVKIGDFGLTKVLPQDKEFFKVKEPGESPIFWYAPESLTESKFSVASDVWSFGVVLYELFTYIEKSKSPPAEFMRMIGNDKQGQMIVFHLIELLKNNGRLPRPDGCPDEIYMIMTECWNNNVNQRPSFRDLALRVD

Row | Structure (SMILES) | Kd
1 | Cc1n[nH]c2ncc(N3CCC(N(C)C(=O)Nc4cc(C(F)(F)F)cn(C)c4=O)C(F)(F)C3)cc12 (single isomer, unassigned) [Example I-36-b, (S)- or (R)-1-(3,3-difluoro-1-(3-methyl-1H-pyrazolo[3,4-b]pyridin-5-yl)piperidin-4-yl)-1-methyl-3-(1-methyl-2-oxo-5-(trifluoromethyl)-1,2-dihydropyridin-3-yl)urea] | < 10 nM
2 | Cc1cc2nc(N3CCC(N(C)C(=O)Nc4cc(C(F)(F)F)cn(C)c4=O)C(F)(F)C3)cnc2[nH]1 (single isomer, unassigned) [Example I-37-a, (R)- or (S)-1-(3,3-difluoro-1-(6-methyl-5H-pyrrolo[2,3-b]pyrazin-2-yl)piperidin-4-yl)-1-methyl-3-(1-methyl-2-oxo-5-(trifluoromethyl)-1,2-dihydropyridin-3-yl)urea] | < 10 nM
3 | Cc1cc2nc(N3CCC(N(C)C(=O)Nc4cc(C(F)(F)F)cn(C)c4=O)C(F)(F)C3)cnc2[nH]1 (single isomer, unassigned) [Example I-37-b, (S)- or (R)-1-(3,3-difluoro-1-(6-methyl-5H-pyrrolo[2,3-b]pyrazin-2-yl)piperidin-4-yl)-1-methyl-3-(1-methyl-2-oxo-5-(trifluoromethyl)-1,2-dihydropyridin-3-yl)urea] | < 10 nM
4 | CN(C(=O)Nc1cc(C(F)(F)F)cn(C)c1=O)C1CCCN(c2cnc3[nH]ccc3n2)CC1 (single isomer, unassigned) [Example I-41-a, (R)- or (S)-1-(1-(5H-pyrrolo[2,3-b]pyrazin-2-yl)azepan-4-yl)-1-methyl-3-(1-methyl-2-oxo-5-(trifluoromethyl)-1,2-dihydropyridin-3-yl)urea] | 1000 to 5000 nM
5 | CN(C(=O)Nc1cc(C(F)(F)F)cn(C)c1=O)C1CCCN(c2cnc3[nH]ccc3n2)CC1 (single isomer, unassigned) [Example I-41-b, (S)- or (R)-1-(1-(5H-pyrrolo[2,3-b]pyrazin-2-yl)azepan-4-yl)-1-methyl-3-(1-methyl-2-oxo-5-(trifluoromethyl)-1,2-dihydropyridin-3-yl)urea] | 50 to 1000 nM
6 | CN(C(=O)Nc1cc(C(F)(F)F)cn(C)c1=O)[C@@H]1C[C@@H]2C[C@H]1CN2c1cnc(NC(=O)C2CC2)cn1 (single isomer, unassigned) [Example I-44-a] | 10 to 50 nM
7 | CN(C(=O)Nc1cc(C(F)(F)F)cn(C)c1=O)[C@H]1C[C@H]2C[C@@H]1CN2c1cnc(NC(=O)C2CC2)cn1 (single isomer, unassigned) [Example I-44-b] | 10 to 50 nM
8 | CN(C(=O)Nc1cc(C(F)(F)F)cn(C)c1=O)[C@H]1CCN(c2cnc3[nH]ncc3c2)CC1(C)C (single isomer, unassigned) [Example I-45-a] | < 10 nM
9 | CN(C(=O)Nc1cc(C(F)(F)F)cn(C)c1=O)[C@@H]1CCN(c2cnc3[nH]ncc3c2)CC1(C)C (single isomer, unassigned) [Example I-45-b] | 10 to 50 nM
10 | CN(C(=O)Nc1cc(C(F)(F)F)cn(C)c1=O)C1CCN(c2cnc3[nH]ccc3n2)CC1(C)C (single isomer, unassigned) [Example I-49-a, (R)- or (S)-1-(3,3-dimethyl-1-(5H-pyrrolo[2,3-b]pyrazin-2-yl)piperidin-4-yl)-1-methyl-3-(1-methyl-2-oxo-5-(trifluoromethyl)-1,2-dihydropyridin-3-yl)urea] | < 10 nM
11 | CN(C(=O)Nc1cc(C(F)(F)F)cn(C)c1=O)C1CCN(c2cnc3[nH]ccc3n2)CC1(C)C (single isomer, unassigned) [Example I-49-b, (S)- or (R)-1-(3,3-dimethyl-1-(5H-pyrrolo[2,3-b]pyrazin-2-yl)piperidin-4-yl)-1-methyl-3-(1-methyl-2-oxo-5-(trifluoromethyl)-1,2-dihydropyridin-3-yl)urea] | < 10 nM
12 | C[C@@H]1CN(C(=O)Nc2cc(C(F)(F)F)cn(C)c2=O)C2(CCN(c3cnc4[nH]ccc4n3)CC2)C1 (single isomer, unassigned) [Example I-53-a] | 50 to 1000 nM
13 | C[C@H]1CN(C(=O)Nc2cc(C(F)(F)F)cn(C)c2=O)C2(CCN(c3cnc4[nH]ccc4n3)CC2)C1 (single isomer, unassigned) [Example I-53-b] | 50 to 1000 nM
14 | CC1CN(C(=O)Nc2cc(C(F)(F)F)cn(C)c2=O)C2(CCN(c3cnc4[nH]cc(F)c4n3)CC2)C1 (single isomer, unassigned) [Example I-54-a] | 50 to 1000 nM
15 | CC1CN(C(=O)Nc2cc(C(F)(F)F)cn(C)c2=O)C2(CCN(c3cnc4[nH]cc(F)c4n3)CC2)C1 (single isomer, unassigned) [Example I-54-b] | 50 to 1000 nM
16 | C[C@@H]1CN(C(=O)Nc2cc(C(F)(F)F)cn(C)c2=O)C2(CCN(c3cnc4[nH]cc(C#N)c4n3)CC2)C1 (single isomer, unassigned) [Example I-60-a] | 50 to 1000 nM
17 | C[C@H]1CN(C(=O)Nc2cc(C(F)(F)F)cn(C)c2=O)C2(CCN(c3cnc4[nH]cc(C#N)c4n3)CC2)C1 (single isomer, unassigned) [Example I-60-b] | 50 to 1000 nM

Row | Structure (SMILES) | Kd
18 | CN(C(=O)Nc1cc(C(F)(F)F)cn(C)c1=O)[C@@H]1CCN(c2cnc3[nH]ccc3n2)C[C@H]1F (single isomer, unassigned) [Example I-63-a] | < 10 nM
19 | CN(C(=O)Nc1cc(C(F)(F)F)cn(C)c1=O)[C@H]1CCN(c2cnc3[nH]ccc3n2)C[C@@H]1F (single isomer, unassigned) [Example I-63-b] | < 10 nM
20 | CN(C(=O)Nc1cc(C(F)(F)F)cn(C)c1=O)[C@@H]1CC=C(c2cnc3[nH]ccc3n2)CC1 (single isomer, unassigned) [Example I-82-a] | < 10 nM
21 | CN(C(=O)Nc1cc(C(F)(F)F)cn(C)c1=O)[C@H]1CC=C(c2cnc3[nH]ccc3n2)CC1 (single isomer, unassigned) [Example I-82-b] | < 10 nM
22 | CN1CCC(c2n[nH]c3ncc(N4CC[C@H](N(C)C(=O)Nc5cc(C(F)(F)F)cn(C)c5=O)C(F)(F)C4)cc23)CC1 (single isomer, unassigned) [Example I-122-a] | < 10 nM
23 | CN1CCC(c2n[nH]c3ncc(N4CC[C@@H](N(C)C(=O)Nc5cc(C(F)(F)F)cn(C)c5=O)C(F)(F)C4)cc23)CC1 (single isomer, unassigned) [Example I-122-b] | < 10 nM
24 | CC(=O)N1CCC(c2n[nH]c3ncc(N4CC[C@@H](N(C)C(=O)Nc5cc(C(F)(F)F)cn(C)c5=O)C(F)(F)C4)cc23)CC1 (single isomer, unassigned) [Example I-123-a] | < 10 nM
25 | CC(=O)N1CCC(c2n[nH]c3ncc(N4CC[C@H](N(C)C(=O)Nc5cc(C(F)(F)F)cn(C)c5=O)C(F)(F)C4)cc23)CC1 (single isomer, unassigned) [Example I-123-b] | < 10 nM
26 | CN1CCN(c2n[nH]c3ncc(N4CC[C@@H](N(C)C(=O)Nc5cc(C(F)(F)F)cn(C)c5=O)C(F)(F)C4)cc23)CC1 (single isomer, unassigned) [Example I-154-a, (R)- or (S)-1-(3,3-difluoro-1-(3-(4-methylpiperazin-1-yl)-1H-pyrazolo[3,4-b]pyridin-5-yl)piperidin-4-yl)-1-methyl-3-(1-methyl-2-oxo-5-(trifluoromethyl)-1,2-dihydropyridin-3-yl)urea] | < 10 nM
27 | CN1CCN(c2n[nH]c3ncc(N4CC[C@H](N(C)C(=O)Nc5cc(C(F)(F)F)cn(C)c5=O)C(F)(F)C4)cc23)CC1 (single isomer, unassigned) [Example I-154-b, (R)- or (S)-1-(3,3-difluoro-1-(3-(4-methylpiperazin-1-yl)-1H-pyrazolo[3,4-b]pyridin-5-yl)piperidin-4-yl)-1-methyl-3-(1-methyl-2-oxo-5-(trifluoromethyl)-1,2-dihydropyridin-3-yl)urea] | < 10 nM
28 | CN(C(=O)Nc1cc(C(F)(F)F)cn(C)c1=O)[C@@H]1CCN(c2cnc3[nH]cc(N4CCOCC4)c3n2)CC1(F)F (single isomer, unassigned) [Example I-155-a] | 10 to 50 nM
29 | CN(C(=O)Nc1cc(C(F)(F)F)cn(C)c1=O)[C@H]1CCN(c2cnc3[nH]cc(N4CCOCC4)c3n2)CC1(F)F (single isomer, unassigned) [Example I-155-b] | 10 to 50 nM
30 | CN(C(=O)Nc1cc(C(F)(F)F)cn(C)c1=O)[C@@H]1CC=C(c2cnc3[nH]ncc3n2)CC1 (single isomer, unassigned) [Example I-160-a, (S)- or (R)-1-(4-(1H-pyrazolo[3,4-b]pyrain-5-yl)cyclohex-3-en-1-yl)-1-methyl-3-(2-methyl-2-oxo-5-(trifluoromethyl)-1,2-dihydropyridin-3-yl)urea] | < 10 nM
31 | CN(C(=O)Nc1cc(C(F)(F)F)cn(C)c1=O)[C@H]1CC=C(c2cnc3[nH]ncc3n2)CC1 (single isomer, unassigned) [Example I-160-b, (S)- or (R)-1-(4-(1H-pyrazolo[3,4-b]pyrain-5-yl)cyclohex-3-en-1-yl)-1-methyl-3-(2-methyl-2-oxo-5-(trifluoromethyl)-1,2-dihydropyridin-3-yl)urea] | < 10 nM
32 | COc1n[nH]c2ncc(N3CC[C@H]4[C@H](C3)OCCN4C(=O)Nc3cc(C(F)(F)F)cn(C)c3=O)cc12 (single isomer, unassigned) [Example I-169-a] | 10 to 50 nM
33 | COc1n[nH]c2ncc(N3CC[C@H]4[C@H](C3)OCCN4C(=O)Nc3cc(C(F)(F)F)cn(C)c3=O)cc12 (single isomer, unassigned) [Example I-169-b] | < 10 nM
